Assay results as given in ChEMBL document CHEMBL1201862, “PubChem BioAssay data set” (2004).
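The compound was tested at five concentrations on cells cultured in 96-well plates, with a 48-hour exposure period. Abbreviation: GI50, concentration required for 50% inhibition of growth.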 Active and inactive are the calls of the source. Rule as the data show it: active = GI50 up to about 1.1 µM and inactive = higher.

Key:
Assay in all cases: NCI anticancer screen, dose series, 48 h
NCI-H23 = system: NCI-H23
NCI-H460 = system: NCI-H460
SK-MEL-2 = system: SK-MEL-2
MDA-MB-231 = system: MDA-MB-231
T47D = system: T47D
SK-MEL-28 = system: SK-MEL-28
Hs-578T = system: Hs-578T
OVCAR-3 = system: OVCAR-3
786-0 = system: 786-0
LOX IMVI = system: LOX IMVI
TK-10 = system: TK-10
SNB-19 = system: SNB-19
EKVX = system: EKVX
NCI/ADR-RES = system: NCI/ADR-RES
DU-145 = system: DU-145
A549 = system: A549
Malme-3M = system: Malme-3M
UACC-62 = system: UACC-62
CAKI-1 = system: CAKI-1
KM12 = system: KM12
SF-268 = system: SF-268
MDA-N = system: MDA-N
SN12C = system: SN12C
K562 = system: K562
CCRF-CEM = system: CCRF-CEM
SK-OV-3 = system: SK-OV-3
COLO 205 = system: COLO 205
RPMI-8226 = system: RPMI-8226
MDA-MB-435 = system: MDA-MB-435
RXF 393 = system: RXF 393
HOP-62 = system: HOP-62
OVCAR-8 = system: OVCAR-8
NCI-H226 = system: NCI-H226
SF-295 = system: SF-295
SK-MEL-5 = system: SK-MEL-5
HCC 2998 = system: HCC 2998
SNB-75 = system: SNB-75
MOLT-4 = system: MOLT-4
U-251 = system: U-251
UO-31 = system: UO-31
OVCAR-4 = system: OVCAR-4
HL-60 = system: HL-60
HT-29 = system: HT-29
MCF7 = system: MCF7
ACHN = system: ACHN
NCI-H522 = system: NCI-H522
HOP-92 = system: HOP-92
SR = system: SR
A498 = system: A498
HCT-116 = system: HCT-116
SF-539 = system: SF-539
SW-620 = system: SW-620
PC-3 = system: PC-3
HCT-15 = system: HCT-15
UACC-257 = system: UACC-257
IGROV-1 = system: IGROV-1
M14 = system: M14
OVCAR-5 = system: OVCAR-5

COc1ccc(C(O)CC(O)(C(F)(F)F)C(F)(F)F)cc1 (stereo not drawn)
GI50 (NCI-H23): 19.5 µM (inactive) | GI50 (NCI-H460): 27.4 µM (inactive) | GI50 (SK-MEL-2): 17.6 µM (inactive) | GI50 (MDA-MB-231): 20 µM (inactive) | GI50 (T47D): 41.8 µM (inactive) | GI50 (SK-MEL-28): 62.7 µM (inactive) | GI50 (Hs-578T): 16.3 µM (inactive) | GI50 (OVCAR-3): 22.2 µM (inactive) | GI50 (786-0): 32.4 µM (inactive) | GI50 (LOX IMVI): 18.2 µM (inactive) | GI50 (TK-10): 44.7 µM (inactive) | GI50 (SNB-19): 24.9 µM (inactive) | GI50 (EKVX): 31.3 µM (inactive) | GI50 (NCI/ADR-RES): 19.4 µM (inactive) | GI50 (DU-145): 47 µM (inactive) | GI50 (A549): 21.5 µM (inactive) | GI50 (Malme-3M): 16.8 µM (inactive) | GI50 (UACC-62): 22.8 µM (inactive) | GI50 (CAKI-1): 15 µM (inactive) | GI50 (KM12): 51.3 µM (inactive) | GI50 (SF-268): 39.9 µM (inactive) | GI50 (MDA-N): 46.2 µM (inactive) | GI50 (SN12C): 24.8 µM (inactive) | GI50 (K562): 25.6 µM (inactive) | GI50 (CCRF-CEM): 20.8 µM (inactive) | GI50 (SK-OV-3): 54.1 µM (inactive) | GI50 (COLO 205): 19.1 µM (inactive) | GI50 (RPMI-8226): 14.4 µM (inactive) | GI50 (MDA-MB-435): 31.9 µM (inactive) | GI50 (RXF 393): 20.1 µM (inactive) | GI50 (HOP-62): 26.4 µM (inactive) | GI50 (OVCAR-8): 23 µM (inactive) | GI50 (NCI-H226): 23.2 µM (inactive) | GI50 (SF-295): 29.6 µM (inactive) | GI50 (SK-MEL-5): 21.2 µM (inactive) | GI50 (HCC 2998): 38 µM (inactive) | GI50 (SNB-75): 1.7 µM (inactive) | GI50 (MOLT-4): 23.9 µM (inactive) | GI50 (U-251): 37.4 µM (inactive) | GI50 (UO-31): 39.8 µM (inactive) | GI50 (OVCAR-4): 32.6 µM (inactive) | GI50 (HL-60): 18.7 µM (inactive) | GI50 (HT-29): 28.8 µM (inactive) | GI50 (MCF7): 61.4 µM (inactive) | GI50 (ACHN): 29.6 µM (inactive) | GI50 (NCI-H522): 32.1 µM (inactive) | GI50 (HOP-92): 15.8 µM (inactive) | GI50 (SR): 22.9 µM (inactive) | GI50 (A498): 21.9 µM (inactive) | GI50 (HCT-116): 16.6 µM (inactive) | GI50 (SF-539): 21.7 µM (inactive) | GI50 (SW-620): 33 µM (inactive) | GI50 (PC-3): 11 µM (inactive) | GI50 (HCT-15): 34.8 µM | GI50 (UACC-257): 19.1 µM (inactive) | GI50 (IGROV-1): 26.8 µM (inactive) | GI50 (M14): 32.8 µM (inactive) | GI50 (OVCAR-5): 27.5 µM (inactive)
